ChEMBL document CHEMBL5728923, “Cyclin dependent kinase inhibitors” (2022)

Molecular target: Cyclin-dependent kinase 4/cyclin D1 (Homo sapiens, UniProt P11802+P24385)
Experiment: Mobility Shift Assay : The purpose CDK4/Cyclin D1 assay is to evaluate the inhibition (% inhibition, Kiapp and Ki values) in the presence of small molecule inhibitors by using a fluorescence based microfluidic mobility shift assay. CDK4/Cyclin D1 catalyzes the production of ADP from ATP that accompanies the phosphoryl transfer to the substrate peptide 5-FAM-Dyrktide (5-FAM-[…]) (SEQ ID NO:1). The mobility shift assay electrophoretically separates the fluorescently labeled peptides (substrate and phosphorylated product) following the kinase reaction. Both substrate and product are measured and the ratio of these values is used to generate % Conversion of substrate to product by the LabChip EZ Reader. […] The reaction was stopped after 195 minutes by the addition of 50 μL of 30 mM EDTA. Ki determinations were made from a plot of the fractional velocity as a function of inhibitor concentration fit to the Morrison equation with the enzyme concentration as a variable.
Assay type: protein-complex assay

Sequence of Cyclin-dependent kinase 4/cyclin D1 (P11802 whole entry): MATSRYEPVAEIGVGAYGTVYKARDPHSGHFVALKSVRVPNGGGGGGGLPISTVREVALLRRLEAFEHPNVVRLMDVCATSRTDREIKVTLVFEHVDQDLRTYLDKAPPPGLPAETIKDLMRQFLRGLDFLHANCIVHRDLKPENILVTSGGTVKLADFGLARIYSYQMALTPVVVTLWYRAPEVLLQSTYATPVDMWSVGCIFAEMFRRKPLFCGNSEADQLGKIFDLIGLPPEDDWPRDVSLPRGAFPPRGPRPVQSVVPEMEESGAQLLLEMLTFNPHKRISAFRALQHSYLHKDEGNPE
Sequence of Cyclin-dependent kinase 4/cyclin D1 (P24385 whole entry): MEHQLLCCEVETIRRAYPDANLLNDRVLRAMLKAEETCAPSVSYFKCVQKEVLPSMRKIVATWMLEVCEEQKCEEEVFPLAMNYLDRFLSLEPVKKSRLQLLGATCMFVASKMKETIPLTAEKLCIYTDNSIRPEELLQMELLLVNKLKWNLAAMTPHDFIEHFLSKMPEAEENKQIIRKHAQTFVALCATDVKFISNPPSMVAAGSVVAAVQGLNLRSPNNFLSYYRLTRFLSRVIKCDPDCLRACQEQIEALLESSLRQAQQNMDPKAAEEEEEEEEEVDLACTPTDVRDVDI

Ki: 0.1 nM
Compound: CC(C)n1c([C@H](C)O)nc2c(F)cc(-c3cc(N[C@@H]4CCN(S(C)(=O)=O)C[C@H]4O)ncc3Cl)cc21 (single isomer, unassigned)
